Reference: patent publication US20080207502A1, “Anti-Angiogenic Peptides and Methods of Use Thereof” (SOPHERION THERAPEUTICS, INC., priority 2004, published 2008)

Columns and labels:
[1] = Biological activity of D-amino acid versions of ST100,038 (assay not specified); settings: ST100,045 tested against ST100,059 and a control
Experimental: D-amino acid peptides can be made by generating a D-amino acid peptide with the same sequence as a L-amino acid peptide or by preparing a retro inverso form of a peptide. ST100,045 (SEQ ID NO.: 31) has the same sequence as ST100,038 (SEQ ID NO.: 29) was tested against ST100,059 (SEQ ID NO.: 30) which is the retro inverso version of ST100,038 and a control.

B16 melanoma tumor = test: Subcutaneous B16 melanoma tumor model in vivo; parameters: species or system mouse; settings: 20 mg/kg daily IP, vs untreated controls, FIG. 12
Experimental: Because of the importance of the angiogenic process for tumorigenesis, miniproteins as described herein, were hypothesized to show good anti-tumor activity. The peptides of the invention were tested in an in vivo model of anti-tumor activity. This model compares the growth of sub cutaneous B16 melanoma tumor in vivo either untreated or treated with various amount of miniproteins described in this application. This model is widely accepted in the art as a model to test the anti-tumor activity of compounds that inhibit tumor growth because they have anti-angiogenic activity.
Male C57BL/6 mice were obtained with a mean body weight of 20±2 g. Mouse B16-F1 melanoma cells were implanted subcutaneously (5×10^5 cell per animal). Peptides (formulated in water) were administered ip daily at the amount indicated starting the day after cells injection. In general, tumors became palpable around 9 days after injection of cells. Tumor were then measured every 2 days.

[2] = system: RPMI-8226 human myeloma xenografts; test: RPMI-8226 human myeloma subcutaneous xenograft model in scid mice; format: in vivo; settings: vs untreated controls, FIG. 16
Experimental: Anti-tumor efficacy of test peptides was evaluated against RPMI-8226 human myeloma xenografts implanted subcutaneously (sc) in severe compromised immunodeficient (scid) mice.
Studies generally consisted of randomly-assigned groups of 8 or 10 mice per group, which were implanted sc with myeloma fragments (30-40 mg). In addition to groups tested with test peptides, studies usually included a vehicle-treated control group and a positive control group treated with an agent known to be active in the RPMI-8226 model. In one type of schedule, mice were treated IP with either vehicle or test peptides starting one day after tumor implantation (implantation day defined as Day 0). Test peptides and vehicle were generally administered IP daily for 3-4 weeks.
Dosing solutions of the test peptides were prepared weekly and kept at −20° C. between injections. […] Each tumor was measured by caliper in two dimensions and converted to tumor mass using the formula for a prolate ellipsoid (a X b^2/2), where a is the longer dimension and b is the smaller dimension, and assuming unit density (1 mm^3=1 mg). Tumor measurements were recorded twice weekly. Body weights were also recorded twice weekly. Anti-tumor activity was assessed by the delay in tumor growth of the treated groups in comparison to the vehicle-treated control group, partial and complete regressions, and tumor-free survivors. […]

[3] = Heparin binding activity by liquid chromatography on Hi Trap Heparin HP column (NaCl elution); settings: step gradient 500-1000 mM NaCl in 10 mM NaH2PO4 pH 7
Excerpt: Liquid chromatography was used to determine the relative levels of heparin binding activity of the individual heparin binding domains and of the anti-angiogenic miniproteins that contains them. In this assay, the strength of the heparin binding activity is proportional to the amount of NaCl that is required to elute the peptide bound to the heparin column. Peptides with low binding activity are eluted with lower NaCl concentration, whereas higher concentrations of NaCl are required for peptides with higher binding activity.
Hi Trap Heparin HP column (1 ml, Amersham Biosciences) was equilibrated with 10 column volumes (CV) of equilibration (EQ) buffer=10 mM NaH2PO4pH 7. All buffers were loaded onto columns via syringes. 500 μl fractions are collected (flow rate=1 ml/minute). 500 μg of peptide (1 mg/ml, resuspended in EQ buffer) was added to each column and the flow through was collected for analysis. The columns were then washed with 3 CV of EQ buffer. Peptides are then eluted with a step gradient of 500, 625, 750, 875 mM NaCl in EQ buffer, 2 CV per each step. A final step of 3 CV of 1000 mM NaCl in EQ buffer was collected in 500 μl fractions. The A210 nm was measured using EQ and elution buffers as blanks.

[4] = system: Bovine Retinal Endothelial Cells (BRE); test: VEGF-mediated survival/proliferation of BRE cells (WST1); format: cell-based; settings: increasing doses, FIG. 5
Experimental: (§1) The anti-angiogenic activities of the peptides were tested by measuring the level of inhibition of VEGF and bFGF mediated survival/proliferation of Bovine Retinal Endothelial Cells (BRE), Human Dermal Microvasculature Endothelial Cells, and Human Umbilical Vein Endothelial Cells, all of which are standard cell lines used to test anti-angiogenic compounds.
Bovine retinal endothelial (BRE) cells were maintained in Cambrex EG2 media. For non-adherent cell assays, on day one cells were starved for either 6 hours or overnight, then trypsinized and plated in 96-well plates in 100 μl of Optimem plus 1% fetal bovine serum (FBS). One hundred μl of Optimem plus 1% FBS was added to the wells containing, where appropriate, VEGF to a final concentration of 25 ng/ml, and the various peptides to final concentrations as described. For adherent cells, cells were plated in 96-well plates in complete media, allowed to adhere overnight, washed in starvation media (Optimem plus 1% FBS) and then starved during the day. At the end of the day, 100 μl of Optimem plus 1% FBS was added to the wells containing, where appropriate, VEGF to a final concentration of 25 ng/ml and the various peptides to final concentrations as described.
(§2) In all cases, after 72 hours incubation, the amount of live cells in each well was measured with the WST1 assay (Roche).

[5] = system: human dermal microvasculature endothelial cells; test: bFGF mediated survival/proliferation in human dermal microvasculature endothelial cells; format: cell-based; settings: 30, 100, and 200 μg/ml, FIG. 8
Experimental: as §1, §2
(§3) In a further experiment, the anti-angiogenic activity of peptide ST100,061 (SEQ ID NO.: 3), a derivative of ST100,032 (SEQ ID NO.: 1), at concentrations of 30, 100, and 200 μg/ml was tested by measuring the level of inhibition of VEGF and bFGF mediated survival/proliferation in human dermal microvasculature endothelial cells.

[6] = system: human dermal microvasculature endothelial cells; test: VEGF mediated survival/proliferation in human dermal microvasculature endothelial cells; format: cell-based; settings: 30, 100, and 200 μg/ml, FIG. 8
Experimental: as §1, §2, §3

[7] = system: mouse leukemia L1210 cells; test: Tumor cell proliferation (WST-1), L1210; format: cell-based; settings: FIG. 11
Experimental: Peptides to be tested were prepared at a stock concentration of 10 mM in sterile phosphate buffered saline. Cancer cell lines obtained from the American Type Culture Collection (MG-63, HT1080, A498, BxPC3, 786-0, PC-3, B16F1, B16F10, P388D1, Jurkat, MOLT4, THP-1, U-937, L1210, RPMI 8226, NCI H929, U266B1, K562) were cultured under appropriate conditions as described in the literature. Cell culture media and reagents were obtained from ATCC (Manassas, Va.), Invitrogen (Carlsbad, Calif.) or Mediatech (Herndon, Va.). Exponentially growing cultures were used for cell proliferation assays. Adherent cells were plated at a concentration of 100000 cells per milliter in growth media overnight (18-24 h) and treated the next day in a low serum media (growth media with 1% FBS for MG-63, HT1080, A498, BxPC3, PC-3, B16F1, B16F10. 786-0 cells were treated in media with 5% FBS). Suspension cell lines (P388D1, Jurkat, MOLT4, THP-1, U-937, L1210, RPMI 8226, NCI H929, U266B1, and K562) were diluted to a concentration of 100,000 cells per ml and treated on the same day with peptides. Peptides were diluted in treatment media and cells were treated for 48 or 72 hours depending on the cell line. Each dose was tested in triplicate for each experiment, and experiments were repeated for a minimum of three discrete times. After incubation, the relative number of cells was determined using WST-1 (Roche Applied Science). A 9.5 μl aliquot of WST-1 was added to each well. The plate was immediately read at 440 nm using a Bio-Tek PowerWave XS microplate reader, incubated for 2-3 hours at 37° C. and then read again. Cell proliferation was determined as the percent of the control cell proliferation. The absorbance of each well at time 0 was subtracted from the value of the final reading. Afterwards the blank values were averaged and subtracted from each test and control value. Finally, each test absorbance was divided by the average of the control absorbances and multiplied by 100 to obtain the percent of control. […]

L1210 murine leukemia = L1210 murine leukemia intravenous model in vivo; parameters: species or system mouse; settings: dosed IP, DBA/2 mice, FIG. 15a
Experimental: Antitumor activity of test peptides, administered intraperitoneally (IP), were evaluated against L1210 murine leukemia cells implanted intravenously (IV) in DBA/2 mice.
Studies generally consisted of randomly-assigned groups of 8 mice per group, which were inoculated IV with 1×10^5 cells per mouse from an in vivo leukemia cell line. In addition to groups tested with test peptides, studies usually included a vehicle-treated control group and a positive control group treated with an agent known to be active in the L1210 leukemia model. Starting one day after tumor inoculation (inoculation day defined as Day 0), mice were treated IP with either vehicle or test peptides in various schedules. Generally this consisted of treatment every other day for approximately 1 week (e.g., Days 1, 3, 5 and 7). A positive agent (e.g., cyclophosphamide) was usually given as a single IP injection on Day 1. All dosing solutions were prepared on each day of treatment. Survival was monitored daily and body weights were measured twice weekly. Anti-tumor activity was assessed by the increase in lifespan of the treated groups in comparison to the vehicle-treated control group. Studies with the L1210 leukemia model were limited to 30 days.

[8] = system: Human Umbilical Vein Endothelial Cells; test: bFGF-mediated survival/proliferation of human umbilical vein endothelial cells (WST1); format: cell-based
Experimental: as §1
Human umbilical cord endothelial (HUVEC) cells were maintained in Cambrex EGM-2MV media. On day one, cells were starved overnight in 1% FBS in M200 media (Cascade Biologicals). The morning after, the media were replaced with serum-free media (control) or media containing 25 ng/ml of human VEGF165 and the various peptides to final concentrations as described.
as §2

| [NaCl] for elution [3] [mM] | Sequence | biologically active [1] | inhibition of tumor growth (B16 melanoma tumor) | inhibition of tumor growth ([2]; 100 mg/kg daily IP) | inhibition of VEGF stimulation [4] | inhibition of bFGF mediated survival/proliferation [5] | inhibition of VEGF mediated survival/proliferation [6] | blocked cell proliferation or induced cell death [7] | mice (cured mice) survived longer than 30 days (L1210 murine leukemia) | survival (L1210 murine leukemia) | inhibition of bFGF mediated survival ([8]; compared with ST100,061, FIG. 9) | inhibition of bFGF mediated survival ([8]; comparison of several peptides, FIG. 10) | inhibition of tumor growth ([2]; 25 mg/kg daily IP) |
| --- | --- | --- | --- | --- | --- | --- | --- | --- | --- | --- | --- | --- | --- |
| 0 | PSQSSHPPLSTA (listed as Homo sapiens) [ST100,059] | biologically active | clearly inhibit tumor growth | does not inhibit tumor growth | inhibited with increasing doses | – | – | – | – | – | – | – | – |
| – | PYDGRGDSVVYGLRKKKAARGRRAARGRR (listed as Homo sapiens) [ST100,061, a derivative of ST100,032] | – | may be less active | – | – | effective in inhibiting both VEGF and bFGF | effective in inhibiting both VEGF and bFGF | – | – | – | – | – | – |
| – | RRGRAARRGRAAKKKRLGYVVSDGRGDYP [ST100,064] | – | – | – | – | – | – | able to block cell proliferation and induce cell death | Sixty to eighty percent | statistically significant increases in survival | as effectively as ST100,061 | the most active in inhibiting bFGF stimulation | able to inhibit tumor growth |
